# Experimental data reported in paper PMC4184702 (Pharmacology Research & Perspectives, 2014).
# Entries after “also recorded” stand apart in the source; their conditions may differ. Where two headings read alike, the source gives them in different places.
# Experiments:
# α4β2* nAChR = conditions: Figure 1, cited from earlier work
# α3β4* nAChR = target: α3β4* nAChR; design: method as in Mineur et al. ([2009]); conditions: Figure 1; ref Mineur et al. ([2009]); cited from earlier work
# C57BL/6J mice = conditions: ref Mineur et al. [2009], cited from earlier work; for latency to eat in NSF: 14 days repeat treatment, C57BL/6J mice, [2011]
# LS and HS α4β2-nAChR = system: LS and HS α4β2-nAChR; design: method as in Mineur et al. [2009]; conditions: relative to that of ACh; ref Mineur et al. [2009]; cited from earlier work
# α7* nAChR = conditions: Figure 1, cited from earlier work
# human α4β2-nAChR = target: T1, human α4β2-nAChR (Homo sapiens, UniProt P17787+P43681); experiment: 86Rb+ ion efflux assay, SH-EP1-hα4β2 cells; assay type: cell-based; conditions: normalized to a full antagonist
# T1 construct: expressed in transfected cells; host or cells: SH-EP1 human epithelial cells (SH-EP1-hα4β2)
# Description: (§1) Cell lines naturally or heterologously expressing specific, functional, human nAChR subtypes were used. The human clonal cell line TE671/RD naturally expresses human muscle-type α1*-nAChRs, containing α1, β1, γ, and δ subunits, with function detectable using ^86Rb^+ efflux assays. […] These cells heterologously express human nAChR chimeric (α6/3) subunits (wherein the extracellular, N-terminal, ligand-binding domain of the human nAChR α6 subunit replaces that domain in the nAChR α3 subunit) along with human β2 and β3 subunits. […] Cells were passaged once a week by splitting just-confluent cultures 1/300 (TE671/RD), 1/10 (SH-SY5Y), or 1/40 (transfected SH-EP1) in serum-supplemented medium to maintain log-phase growth.
# (§2) One newer modification on these techniques involves low temperature incubation before assays to increase the surface expression of high sensitivity (HS) relative to low sensitivity (LS) α4β2 nAChRs and to enhance surface expression of (α6/3)β2β3-nAChRs. […] In brief, this allows us to determine efficacies of test compounds at LS and HS α4β2 nAChRs, respectively, as the ordinate values of the linear regressions at abscissa values of 0% and 100% of sazetidine-A efficacy.
# (§3) Results are normalized to responses to a fully efficacious concentration of carbamylcholine (see Materials and Methods for details). […]
# human (α6/3)β2β3-nAChR = target: T2, human (α6/3)β2β3-nAChR (Homo sapiens, UniProt P17787+P32297+Q15825); experiment: 86Rb+ ion efflux assay, SH-EP1-h(α6/3)β2β3 cells; assay type: cell-based
# T2 construct: expressed in transfected cells; host or cells: SH-EP1 human epithelial cells (SH-EP1-h(α6/3)β2β3)
# Description: as §1, §2
# Results are normalized to responses to a fully efficacious concentration of carbamylcholine (see Materials and Methods for details). […] The ordinate intercepts of the linear regressions at a sazetidine-A efficacy (abscissa) of 0% represent the efficacies at LS α4β2-nAChRs, while the ordinate intercepts at a sazetidine-A efficacy of 100% represent the efficacies at HS α4β2-nAChRs.
# [1] = system: male 129SvJ;C57BL/6J F1 hybrid mice; design: method as in Turner et al. ([2010]); conditions: chronic treatment; ref Turner et al. ([2010]); cited from earlier work
# [2] = target: T3, LS (low sensitivity) α4β2-nAChRs (Homo sapiens, UniProt P17787+P43681); experiment: 86Rb+ ion efflux assay, LS α4β2 efficacy by regression on sazetidine-A efficacy; assay type: cell-based; conditions: relative to carbamylcholine
# T3 construct: expressed in transfected cells; host or cells: SH-EP1 human epithelial cells (SH-EP1-hα4β2)
# Description: as §1, §2, §3
# α7 nAChR = conditions: ref Rollema et al. [2010]; read-out: Ki α7; cited from earlier work
# human α3β4*-nAChR = target: T4, human α3β4*-nAChR (Homo sapiens, UniProt P30926+P32297); experiment: 86Rb+ ion efflux assay, SH-SY5Y cells; assay type: cell-based; conditions: 86Rb+ efflux
# T4 construct: SH-SY5Y naturally expresses autonomic α3β4*-nAChRs; endogenous in cells; host or cells: SH-SY5Y human neuroblastoma cells
# Description: as §1, §2, §3
# Male C57 BL6 mice = experiment: SmartCube test; assay type: in vivo, mouse; conditions: for SmartCube behavioral signature: both tested doses, 15 min preinjection
# Description: Male C57 BL6 mice (Taconic Farms) were used in the SmartCube® assay (PsychoGenics Inc., Tarrytown, NY). Mice were received at 7 weeks old and group-housed in OptiMICE ventilated cages with four mice/cage. Mice were acclimated to the colony room for at least 1 week prior to the first injections. All animals were tested in SmartCube® at 8 10 weeks old.
# To acquire initial in vivo evaluation of our nicotinic ligands for behavioral effects relevant to psychiatric diseases, we used SmartCube®, an automated system in which mouse behavior is captured by digital video using novel, proprietary hardware that presents multiple challenges in a single test session and is analyzed with computer algorithms. Digital videos of the subjects are processed with computer vision algorithms to extract more than 1400 dependent measures including frequency and duration of behavioral states such as grooming, rearing, etc., and many other features obtained during the test session. Using machine learning techniques chosen to best separate pharmacological effects of reference compounds, the behavioral signatures of the mutant mice are then assessed quantitatively.
# The most dominant of the features collected that define the drug class signature are identified and ranked using complex proprietary bioinformatics algorithms. The outcome of a SmartCube® run is a set of more than 1400 features (behavioral parameters) that can be used for various analyses. Many of these features are correlated (e.g., rearing counts and supported rearing counts). Therefore, we form statistically independent combinations of the original features (further referred to as decorrelated features) that discriminate between the groups more effectively. Next, we apply a proprietary feature ranking algorithm to score each feature discrimination power to weight each feature change by its relevance. The data obtained in this way are used to define drug signatures for known reference compounds and to establish therapeutic class signatures against which a test sample can be compared. The neuropharmacological effects of a test compound can be predicted by similarity to major classes of compounds, such as antipsychotics, anxiolytics, and antidepressants (Roberds et al. [2011]).
# Mice are taken in their home cage to the SmartCube® suite of experimental rooms where they remain until they are placed in the apparatus for a single testing session. A standard SmartCube® protocol runs for a single session (∼45 min). After the session mice are group-housed again and brought back to the colony room. Any abnormal behavior is noted. […] At least 12 mice were used in each treatment group.
# α4β4 nAChR = conditions: ref Rollema et al. [2010]; cited from earlier work
# [3] = target: T5, HS (high sensitivity) α4β2-nAChRs (Homo sapiens, UniProt P17787+P43681); experiment: 86Rb+ ion efflux assay, HS α4β2 efficacy by regression on sazetidine-A efficacy; assay type: cell-based; conditions: relative to carbamylcholine
# T5 construct: expressed in transfected cells; host or cells: SH-EP1 human epithelial cells (SH-EP1-hα4β2)
# Description: as §1, §2, §3
# α3β4 nAChR = conditions: Figure 1, cited from earlier work
# α4β2 nAChR = conditions: Figure 1, cited from earlier work
# α4β2*-nAChR = system: α4β2*-nAChR; design: method as in Weber et al. [2013]; conditions: estimate at free concentration in brain; ref Weber et al. [2013]; cited from earlier work
# mice = conditions: ref Mineur et al. [2009]; cited from earlier work
# [4] = system: BALB/cJ and C57BL/6J mice; conditions: 28 days oral administration; ref Vieyra-Reyes et al. [2008]; cited from earlier work
# T2 sequence (Q15825+P32297 fused with the stated changes): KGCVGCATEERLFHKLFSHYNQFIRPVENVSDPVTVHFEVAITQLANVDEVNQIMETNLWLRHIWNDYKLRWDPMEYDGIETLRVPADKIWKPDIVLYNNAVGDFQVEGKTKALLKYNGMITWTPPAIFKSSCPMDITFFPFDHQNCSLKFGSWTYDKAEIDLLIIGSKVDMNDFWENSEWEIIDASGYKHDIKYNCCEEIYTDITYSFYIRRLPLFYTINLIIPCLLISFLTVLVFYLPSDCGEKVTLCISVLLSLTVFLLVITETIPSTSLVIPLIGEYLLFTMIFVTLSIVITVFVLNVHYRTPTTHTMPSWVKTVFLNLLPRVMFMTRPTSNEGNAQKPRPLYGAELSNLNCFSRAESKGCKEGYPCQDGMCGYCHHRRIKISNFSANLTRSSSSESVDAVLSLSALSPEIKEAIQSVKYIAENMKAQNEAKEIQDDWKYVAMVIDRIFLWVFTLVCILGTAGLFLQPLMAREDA
# T2 sequence (P17787 26-502): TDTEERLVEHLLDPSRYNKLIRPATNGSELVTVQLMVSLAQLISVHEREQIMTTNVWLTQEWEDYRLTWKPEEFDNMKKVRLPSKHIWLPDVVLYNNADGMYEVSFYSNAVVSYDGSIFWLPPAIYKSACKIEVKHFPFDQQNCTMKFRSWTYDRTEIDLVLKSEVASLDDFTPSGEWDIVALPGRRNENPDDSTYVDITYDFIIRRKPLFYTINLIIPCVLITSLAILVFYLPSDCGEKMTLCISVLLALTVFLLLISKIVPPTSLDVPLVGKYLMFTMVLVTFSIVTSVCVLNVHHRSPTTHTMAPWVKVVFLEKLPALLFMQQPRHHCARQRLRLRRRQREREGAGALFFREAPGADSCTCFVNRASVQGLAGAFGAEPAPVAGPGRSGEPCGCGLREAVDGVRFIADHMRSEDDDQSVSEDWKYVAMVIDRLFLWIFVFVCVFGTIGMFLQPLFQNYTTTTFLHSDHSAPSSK
# T2 sequence (Q05901 25-458 partner limits assumed): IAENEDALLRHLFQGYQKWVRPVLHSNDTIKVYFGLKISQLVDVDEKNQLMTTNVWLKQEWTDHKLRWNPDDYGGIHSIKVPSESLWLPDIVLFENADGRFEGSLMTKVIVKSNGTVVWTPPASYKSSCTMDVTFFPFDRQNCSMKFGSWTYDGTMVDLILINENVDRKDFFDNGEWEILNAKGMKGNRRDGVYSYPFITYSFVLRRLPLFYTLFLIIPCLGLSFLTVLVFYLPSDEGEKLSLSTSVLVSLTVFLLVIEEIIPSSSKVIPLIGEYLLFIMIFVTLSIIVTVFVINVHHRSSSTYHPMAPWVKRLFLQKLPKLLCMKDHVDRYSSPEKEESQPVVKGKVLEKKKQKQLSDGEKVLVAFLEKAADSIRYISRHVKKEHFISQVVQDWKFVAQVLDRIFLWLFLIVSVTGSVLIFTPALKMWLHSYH
# T4 sequence (P32297 32-505): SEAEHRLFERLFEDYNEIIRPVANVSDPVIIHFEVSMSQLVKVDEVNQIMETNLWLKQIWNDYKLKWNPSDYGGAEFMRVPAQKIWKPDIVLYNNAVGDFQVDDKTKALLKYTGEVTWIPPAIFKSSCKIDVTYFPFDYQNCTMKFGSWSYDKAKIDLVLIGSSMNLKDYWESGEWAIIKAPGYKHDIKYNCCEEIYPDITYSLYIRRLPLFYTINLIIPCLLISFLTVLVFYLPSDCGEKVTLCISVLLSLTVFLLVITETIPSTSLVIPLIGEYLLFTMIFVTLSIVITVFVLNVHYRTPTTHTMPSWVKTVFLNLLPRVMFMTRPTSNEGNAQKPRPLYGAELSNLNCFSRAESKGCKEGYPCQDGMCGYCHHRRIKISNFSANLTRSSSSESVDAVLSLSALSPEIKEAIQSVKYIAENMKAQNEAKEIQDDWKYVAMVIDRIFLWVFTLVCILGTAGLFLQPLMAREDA
# T4 sequence (P30926 22-498): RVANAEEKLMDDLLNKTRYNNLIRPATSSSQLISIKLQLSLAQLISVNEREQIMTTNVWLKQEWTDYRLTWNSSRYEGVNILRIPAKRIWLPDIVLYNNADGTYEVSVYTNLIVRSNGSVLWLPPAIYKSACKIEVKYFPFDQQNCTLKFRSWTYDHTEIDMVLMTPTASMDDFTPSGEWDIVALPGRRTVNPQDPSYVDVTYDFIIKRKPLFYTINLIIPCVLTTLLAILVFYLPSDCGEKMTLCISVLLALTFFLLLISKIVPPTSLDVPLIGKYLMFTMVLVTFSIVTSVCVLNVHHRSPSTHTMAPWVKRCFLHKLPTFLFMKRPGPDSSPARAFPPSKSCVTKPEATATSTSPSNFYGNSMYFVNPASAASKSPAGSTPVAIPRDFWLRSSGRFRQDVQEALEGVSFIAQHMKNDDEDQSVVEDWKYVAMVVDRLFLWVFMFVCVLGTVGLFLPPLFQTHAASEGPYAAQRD
# T5 sequence (P43681 29-627 limits assumed): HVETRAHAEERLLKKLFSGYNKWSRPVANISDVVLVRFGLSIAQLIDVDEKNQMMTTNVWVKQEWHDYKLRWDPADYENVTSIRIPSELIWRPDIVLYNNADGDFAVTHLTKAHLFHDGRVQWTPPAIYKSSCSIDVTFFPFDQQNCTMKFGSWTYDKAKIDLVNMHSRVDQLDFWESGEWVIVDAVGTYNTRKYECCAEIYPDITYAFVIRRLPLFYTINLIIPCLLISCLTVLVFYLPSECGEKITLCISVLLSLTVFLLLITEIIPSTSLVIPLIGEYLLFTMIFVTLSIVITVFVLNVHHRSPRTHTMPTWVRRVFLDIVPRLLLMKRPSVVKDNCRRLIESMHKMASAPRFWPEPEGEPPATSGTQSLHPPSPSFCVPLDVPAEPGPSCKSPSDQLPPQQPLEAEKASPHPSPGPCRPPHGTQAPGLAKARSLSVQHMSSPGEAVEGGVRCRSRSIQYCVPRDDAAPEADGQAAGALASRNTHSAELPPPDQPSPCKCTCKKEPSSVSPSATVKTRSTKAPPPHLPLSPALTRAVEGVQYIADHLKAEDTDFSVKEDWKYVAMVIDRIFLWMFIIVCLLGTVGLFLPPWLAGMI
# T5 sequence (P17787 26-502): as the sequence (P17787 26-502) above
# T3 sequence (P43681 29-627 limits assumed): as the sequence (P43681 29-627 limits assumed) above
# T3 sequence (P17787 26-502): as the sequence (P17787 26-502) above
# T1 sequence (P43681 29-627 limits assumed): as the sequence (P43681 29-627 limits assumed) above
# T1 sequence (P17787 26-502): as the sequence (P17787 26-502) above
smiles,measurement,setting,value
O=c1c(-c2ccccn2)ccc2n1CC1CNCC2C1 (stereo not shown) [3-(2-pyridyl)cytisine],Ki,α4β2* nAChR; ref Mineur et al. ([2009]),0.91 nM
same,Ki,α3β4* nAChR,119 nM
same,latency to eat in NSF,C57BL/6J mice,decreased the latency to eat
same,dose found effective in the NSF test,C57BL/6J mice; lower dose only (0.3 vs. 0.6 mg/kg),0.3 mg/kg
same,intrinsic efficacy at both LS and HS receptors,LS and HS α4β2-nAChR,no more than 10%
same,Ki,α7* nAChR; ref Mineur et al. ([2009]),1100 nM
c1cnc2cc3c(cc2n1)[C@@H]1CNC[C@H]3C1 [Varenicline],Inactivation α4β2-nAChR Efficacy,human α4β2-nAChR,79 ± 3.3%
same,EC50,"human (α6/3)β2β3-nAChR; 86Rb+ efflux, read-out: Agonism (α6/3)β2β3-nAChR pEC50 (converted)",17.8 nM
same,Agonism (α6/3)β2β3-nAChR Efficacy,human (α6/3)β2β3-nAChR; normalized to a full agonist,17 ± 0.5
same,Inactivation (α6/3)β2β3-nAChR Efficacy,human (α6/3)β2β3-nAChR; normalized to a full antagonist,74 ± 2.6%
same,"time needed to approach food, NIH paradigm",[1],no effect
same,Agonism α4β2-nAChR LS Efficacy,[2],34 ± 2.8%
same,Ki,α7 nAChR,125 nM
same,Agonism α3β4*-nAChR Efficacy,human α3β4*-nAChR,110%
same,latency to eat in NSF,C57BL/6J mice,did not show any effect
same,SmartCube antidepressant effects,Male C57 BL6 mice; 1 mg/kg,weak antidepressant effects
same,SmartCube side effects,"Male C57 BL6 mice; 1.0 mg/kg, i.p.",Minimal side effects
same,"SmartCube side effect component, probability","Male C57 BL6 mice; 3.0 mg/kg, i.p.",about 30%
same,SmartCube behavioral signature,Male C57 BL6 mice; i.p.,robust CNS drug-like signatures
same,Ki,α4β4 nAChR,110 nM
same,Agonism α4β2-nAChR HS Efficacy,[3],105 ± 4.4%
FC(F)(F)c1ccc2c(c1)[C@H]1CNC[C@@H]2C1 [CP-601927],Ki,α3β4 nAChR; ref Mineur et al. ([2011]),102 nM
same,latency to eat in NSF,C57BL/6J mice,increased the latency to eat
same,Ki,α4β2 nAChR; ref Mineur et al. ([2011]),1.2 nM
CNC1(C)C2CCC(C2)C1(C)C (stereo not shown) [mecamylamine],block of α4β2*-nAChR function,α4β2*-nAChR,~20%
O=c1cccc2n1C[C@@H]1CNC[C@H]2C1 [(-)-cytisine],dose not tolerated by mice,mice,> 1.5 mg/kg
same,Ki,α3β4 nAChR; ref Rollema et al. ([2010]),480 nM
same,latency to eat in NSF,C57BL/6J mice,decreased the latency to eat
same,intrinsic efficacy at both LS and HS receptors,LS and HS α4β2-nAChR,no more than 10%
same,Ki,α7* nAChR; ref Rollema et al. ([2010]),5890 nM
same,Ki,α4β2 nAChR; ref Rollema et al. ([2010]),2 nM
same,SmartCube antidepressant (green) component,"Male C57 BL6 mice; 1.0 mg/kg, i.p.",potential antidepressive-like behavior; also recorded: most pronounced
same,SmartCube side effects,"Male C57 BL6 mice; 0.5 and 1.0 mg/kg, i.p.",Minimal side effects; also recorded: no obvious side effects
same,SmartCube behavioral signature,Male C57 BL6 mice; i.p.,robust CNS drug-like signatures
OCCCCC#Cc1cncc(OC[C@@H]2CCN2)c1 [Sazetidine-A],"time needed to approach food, NIH paradigm",[1],decreased the time needed to approach food
same,Ki,α4β2* nAChR; ref Xiao et al. ([2006]),0.9 nM
same,Ki,α3β4 nAChR; ref Xiao et al. ([2006]),10000 nM
same,Ki,α4β2 nAChR; ref Xiao et al. ([2006]),0.4 nM
CN1CCC[C@H]1c1cccnc1 [Nicotine],Agonism α3β4*-nAChR Efficacy,human α3β4*-nAChR,90%
same,behavioral changes in NSF,[4],failed to show significant behavioral changes
